Patent US20190169218A1, “AMPHIPATHIC COMPOUND HAVING NOVEL PENTA-SACCHARIDE HYDROPHILIC GROUP AND USE THEREOF” (Industry-University Cooperation Foundation Hanyang …, priority 2016, published 2019)

Columns and labels:
[1] = critical micelle concentration (CMC) by hydrophobic fluorescent staining with diphenylhexatriene (DPH); type: physicochemical
Source text: Methods of measuring CMC are not particularly limited, and methods widely known in the art may be used. For example, a fluorescence staining method using diphenylhexatriene (DPH) may be used.
To characterize PSAs of Preparation Examples 1 to 3 synthesized according to the synthetic method of Example 1; PSEs of Preparation Examples 4 to 7 synthesized according to the synthetic method of Example 2; TPS-Es and TPS-ELs of Preparation Examples 8 to 14 synthesized according to the synthetic method of Example 3; and TPS-As of Preparation Examples 15 to 17 synthesized according to the synthetic method of Example 4, the critical micellar concentrations (CMCs) of PSAs, PSEs and TPSs and the hydrodynamic radii (Rh) of formed micelles were measured.
(§1) Specifically, critical micellar concentrations (CMCs) were measured using hydrophobic fluorescent staining and diphenylhexatriene (DPH), and the hydrodynamic radii (Rh) of micelles formed by each compound at a concentration of 1.0 wt % were measured using dynamic light scattering (DLS). The results were compared with results obtained from an existing amphipathic molecule (detergent), DDM, and are shown in Table 1.

[2] = hydrodynamic radius of micelles by dynamic light scattering (DLS); type: physicochemical; details: compound at 1.0 wt %
Procedure: Methods of measuring the radius of micelles are not particularly limited, and methods widely known in the art may be used. For example, dynamic light scattering (DLS) may be used.
as §1
When measuring, each of PSAs, PSEs and TPSs was used at a concentration of 1.0 wt %.

[3] = system: leucine transporter (LeuT); test: LeuT stability, [3H]-Leu binding by scintillation proximity assay (SPA); type: biochemical, Aquifex aeolicus; details: CMC+0.2 wt %, room temperature, 12 days
Procedure: The ability of PSAs, PSEs or TPSs (TPS-A/E/ELs) to stabilize leucine transporter (LeuT), a membrane protein, was measured. LeuT purified by DDM was mixed with a solution containing each amphipathic compound, and the mixture was incubated at room temperature for 12 days. The activity of LeuT proteins was measured by scintillation proximity assay (SPA) using a ligand ([^3H]-Leu), and the concentration of PSAs, PSEs, TPSs or DDM was (a) CMC+0.04 wt %, or (b) CMC+0.2 wt %.
Specifically, LeuT stability measurement was performed in the following manner. According to the results of Example 6, PSA-C10, PSA-C11, PSE-C9, PSE-C11, and PSE-C13 were selected as the amphipathic compounds of PSAs and PSEs except for PSA-C9, and wild type leucine transporter (LeuT) was purified from Aquifex aeolicus using TPS-As, TPS-Es and TPS-EL, according to the method described in G. Deckert et al. (Nature 1998, 392, 353-358.). E. coli C41 (DE3) was transformed with a pET16b plasmid containing a gene construct encoding C-terminal 8×His-tagged LeuT, and thus LeuT was expressed in the form of a fusion protein having 8×His tags at the C-terminus in the transformed E. coli C41 (the expression plasmid was provided by Dr. E. Gouaux, Vollum Institute, Portland, Oreg., USA). Briefly, bacterial membranes containing LeuT were treated with 1.0 wt % DDM, and proteins were bound to Ni^2+-NTA resin (Life Technologies, Denmark). LeuT bound to the resin was eluted using a buffer solution containing 20 mM Tris-HCl (pH 8.0), 1 mM NaCl, 199 mM KCl, 0.05% DDM and 300 mM imidazole. Next, about 1.5 mg/mL of protein stock was diluted 10-fold in an equivalent buffer supplemented with TPS-As, TPS-Es, TPS-ELs, PSAs/PSEs (PSA-C10, PSA-C11, PSE-C9, PSE-C11 and PSE-C13) or DDM (control group) to a final concentration of CMC+0.04 wt % or CMC+0.2 wt % without DDM and imidazole. The protein samples were stored at room temperature and centrifuged at designated times. Protein activity was determined by measuring the degree of binding to [^3H]-Leu using scintillation proximity assay (SPA) (M. Quick et al., Proc. Natl, Acad. Sci. U.S.A. 2007, 104, 3603-3608.). Briefly, SPA was performed with 5 μL of each protein sample dissolved in a buffer containing 450 mM NaCl and each test compound. The SPA reaction was performed in the presence of 20 nM [^3H]-Leu and copper chelate (His-Tag) YSi beads (both were purchased from PerkinElmer, Denmark). The degree of binding to [^3H]-Leu was measured using a MicroBeta liquid scintillation counter (PerkinElmer).

[4] = target: T1, human β2 adrenergic receptor (β2AR) (Homo sapiens, UniProt P07550); test: β2AR activity by [3H]-dihydroalprenolol radioactive ligand binding assay; type: biochemical; details: 3 or 5 days at room temperature
T1 construct: Flag; made in house
T1 sequence (P07550 whole entry): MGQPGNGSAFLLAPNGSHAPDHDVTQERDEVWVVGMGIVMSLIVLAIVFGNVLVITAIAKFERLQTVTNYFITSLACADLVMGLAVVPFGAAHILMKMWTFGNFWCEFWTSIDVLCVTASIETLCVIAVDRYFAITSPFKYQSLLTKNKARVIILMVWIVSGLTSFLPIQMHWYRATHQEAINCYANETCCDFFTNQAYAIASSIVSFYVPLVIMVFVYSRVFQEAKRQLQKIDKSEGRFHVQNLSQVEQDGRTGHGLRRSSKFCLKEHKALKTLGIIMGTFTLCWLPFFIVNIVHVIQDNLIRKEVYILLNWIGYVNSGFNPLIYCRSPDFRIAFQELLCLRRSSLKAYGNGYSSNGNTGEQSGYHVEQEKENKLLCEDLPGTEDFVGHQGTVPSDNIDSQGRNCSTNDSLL
Procedure: The membrane protein stabilizing ability of receptors (mBBr-β2ARs) solubilized in PSAs or PSEs was evaluated by measuring the binding activity of the receptors to [^3H]-dihydroalprenolol ([^3H]-DHA).
Specifically, radioactive ligand binding assay was performed as follows. β2ARs purified with 0.1 wt % DDM was concentrated to about 10 mg/mL (approximately 200 μM). β2ARs purified with DDM were used to prepare a master binding mixture containing 10 nM [^3H]-dihydroalprenolol (DHA), which was dissolved in 0.2 wt % of DDM, PSA or PSE and supplemented with 0.5 mg/mL BSA. At a concentration of 0.2 pmol, the activity of the receptors purified with the amphipathic compounds was monitored at regular intervals over a 4-day incubation period. Protein samples were incubated on ice for 2 days and then at room temperature for 2 days. Receptor activity was measured by binding assay for dissolved radioactive ligands. The receptors purified with DDM or a novel formulation (PSA-C11, PSE-C11 or PSE-C13) were incubated with 10 nM [^3H]-DHA at room temperature for 30 minutes. The mixture was loaded onto a G-50 column, a solution passed through the column was collected in 1 mL of a binding buffer (100 mM NaCl and 20 mM HEPES (pH 7.5) supplemented with 0.5 mg/mL BSA and 20×CMC amphipathic compounds), and 15 mL of a scintillation fluid was added to the solution. Receptor-bound [^3H]-DHA was measured using a scintillation counter (Beckman). Non-specific binding of [^3H]-DHA was measured by adding 1 μM alprenolol (Sigma) to the same reaction mixture. The binding degree of the receptors to [^3H]-DHA was represented by a column graph.
The ability of TPSs (TPS-As, TPS-Es and TPS-ELs) to stabilize the structures of human β2 adrenergic receptors (β2ARs) and G protein-coupled receptors (GPCRs) was measured. That is, DDM-purified receptors were diluted with a buffer solution containing only each of the TPSs without cholesteryl hemisuccinate (CHS) or a buffer solution containing CHS and DDM. The final concentration of the compounds was CMC+0.2wt %, and the binding activity of the receptors to ligands was evaluated by measuring the degree of binding of the receptors to [^3H]-dihydroalprenolol ([^3H]-DHA).
Specifically, radioactive ligand binding assay was performed as follows. β2ARs were purified with 0.1 wt % DDM (D. M. Rosenbaum et al., Science, 2007, 318, 1266-1273.) and was concentrated to about 10 mg/mL (approximately 200 μM). β2ARs purified with DDM were used to prepare a master binding mixture containing 10 nM [^3H]-dihydroalprenolol (DHA), which was dissolved in 0.2% amphipathic compounds (DDM or TPSs) and supplemented with 0.5 mg/mL BSA. The activity of the receptors purified with the amphipathic compounds was monitored at regular intervals over a 3- to 5-day incubation period. The receptors purified with DDM or TPSs were incubated with 10 nM [^3H]-DHA at room temperature for 30 minutes. The mixture was loaded onto a G-50 column, a solution passed through the column was collected in 1 mL of a binding buffer (100 mM NaCl and 20 mM HEPES (pH 7.5) supplemented with 0.5 mg/mL BSA and 20×CMC of each amphipathic compound), and 15 mL of a scintillation fluid was added to the solution. Receptor-bound [^3H]-DHA was measured using a scintillation counter (Beckman). The binding degree of the receptors to [^3H]-DHA was represented by a column graph.

SMILES	CMC [1] [mM]	CMC (wt %) [1] [wt %]	Rh (nm), hydrodynamic radius of micelles [2] [nm]	LeuT transporter activity retained after 12 days of incubation [3] [%]	long-term β2AR activity ([3H]-DHA binding) [4]
CCCCCCOCC(COCCCCCC)(COCCCCCC)CO[C@@H]1OC(CO[C@@H]2OC(CO)[C@@H](O)C(O)C2O)[C@@H](O[C@@H]2OC(CO)[C@@H](O)C(O)C2O)C(O[C@@H]2OC(CO)[C@@H](O)C(O)C2O)C1O[C@@H]1OC(CO)[C@@H](O)C(O)C1O (some centres unmarked) [TPS-E6]	~0.020	~0.0024	2.9 ± 0.05		
CCCCCCCCCCC(CCCCCCCCCC)(CO[C@@H]1O[C@H](CO)[C@@H](O[C@H]2O[C@H](CO)[C@@H](O)[C@H](O)[C@H]2O)[C@H](O)[C@H]1O)CO[C@@H]1O[C@H](CO)[C@@H](O[C@H]2O[C@H](CO)[C@@H](O)[C@H](O)[C@H]2O)[C@H](O)[C@H]1O [MNG-3, reference compound]				40	
CCCCCCCCCOCC(COCCCCCCCCC)(COCCCCCCCCC)CO[C@@H]1OC(COCCCO[C@@H]2OC(CO)[C@@H](O)C(O)C2O)[C@@H](OCCCO[C@@H]2OC(CO)[C@@H](O)C(O)C2O)C(OCCCO[C@@H]2OC(CO)[C@@H](O)C(O)C2O)C1OCCCO[C@@H]1OC(CO)[C@@H](O)C(O)C1O (some centres unmarked) [TPS-E9L]	~0.004	~0.0006	4.6 ± 0.18		significantly better than that of DDM
CCCCCCCCOCC(COCCCCCCCC)(COCCCCCCCC)CO[C@@H]1OC(COCCCO[C@@H]2OC(CO)[C@@H](O)C(O)C2O)[C@@H](OCCCO[C@@H]2OC(CO)[C@@H](O)C(O)C2O)C(OCCCO[C@@H]2OC(CO)[C@@H](O)C(O)C2O)C1OCCCO[C@@H]1OC(CO)[C@@H](O)C(O)C1O (some centres unmarked) [TPS-E8L]	~0.006	~0.0009	4.5 ± 0.39		
CCCCCCCOCC(COCCCCCCC)(COCCCCCCC)CO[C@@H]1OC(CO[C@@H]2OC(CO)[C@@H](O)C(O)C2O)[C@@H](O[C@@H]2OC(CO)[C@@H](O)C(O)C2O)C(O[C@@H]2OC(CO)[C@@H](O)C(O)C2O)C1O[C@@H]1OC(CO)[C@@H](O)C(O)C1O (some centres unmarked) [TPS-E7]	~0.012	~0.0015	13.0 ± 0.8		
CCCCCCCOCC(COCCCCCCC)O[C@@H]1OC(CO[C@@H]2OC(CO)[C@@H](O)C(O)C2O)[C@@H](O[C@@H]2OC(CO)[C@@H](O)C(O)C2O)C(O[C@@H]2OC(CO)[C@@H](O)C(O)C2O)C1O[C@@H]1OC(CO)[C@@H](O)C(O)C1O (some centres unmarked) [PSE-C7]	~0.27	~0.0300	2.66 ± 0.04		
